From US7618816B2, “Metal-binding therapeutic peptides” (Ontherix, Inc., priority 2005, dated 2009)
Where no end group is shown, it is not given here.

Columns and labels:
K562 = test: Uptake of SA-HRP::MBD peptide complexes; type: cell-based; conditions: for SA-HRP uptake, Cyt.: K562, cytoplasmic; for SA-HRP uptake, Nuc.: K562, nuclear
Method: (§1) HEK293 kidney cell line and 54 tumor cell lines obtained from the National Cancer Institute and passaged in RPMI1640 cell culture medium supplemented with 10% fetal bovine serum and 10 uM FeCl2. Uptake of streptavidin-horseradish peroxidase (SA-HRP) conjugate and of various SA-HRP::MBD peptide complexes was determined as described (Singh et al. J Biol Chem. 279 (1):477-87 [2004]) using biotinylated MBD9 ([…]) (SEQ ID NO: 10) and MBD21 ([…]) (SEQ ID NO: 4) peptides and SA-HRP. Nuclear and cytoplasmic localization of these proteins was also determined in each case. […] In order to establish the underlying molecular mechanism for this variability, we cross-linked MBD21 peptide to the following cell surface markers at 4 degrees Celsius as previously described (Singh et al. J Biol Chem. 279 (1):477-87 [2004]): transferrin receptor 1, caveolin 1, PCNA, integrins alpha v, 2, 5 and 6, integrins beta 1, 3 and 5. […] Based on the strength of these correlations, it was possible to derive crude predictive formulae for MBD-mediated uptake based on the rate of cross-linking to surface markers. Such predictive formulas could form the basis for a diagnostic procedure to select appropriate targets for MBD-based therapies.

435 = test: Uptake of SA-HRP::MBD peptide complexes; type: cell-based; conditions: for SA-HRP uptake, Cyt.: 435, cytoplasmic; for SA-HRP uptake, Nuc.: 435, nuclear
Method: as §1

PAN 02 = test: Uptake of SA-HRP::MBD peptide complexes; type: cell-based; conditions: for SA-HRP uptake, Cyt.: PAN 02, cytoplasmic; for SA-HRP uptake, Nuc.: PAN 02, nuclear
Method: as §1

HEK 293 = test: Uptake of SA-HRP::MBD peptide complexes; type: cell-based; conditions: for SA-HRP uptake, Cyt.: HEK 293, cytoplasmic; for SA-HRP uptake, Nuc.: HEK 293, nuclear
Method: as §1

SR = test: Uptake of SA-HRP::MBD peptide complexes; type: cell-based; conditions: for SA-HRP uptake, Cyt.: cytoplasmic; for SA-HRP uptake, Nuc.: nuclear
Method: as §1

CCRF-SB = test: Uptake of SA-HRP::MBD peptide complexes; type: cell-based; conditions: for SA-HRP uptake, Cyt.: cytoplasmic; for SA-HRP uptake, Nuc.: nuclear
Method: as §1

COLON 26 = test: Uptake of SA-HRP::MBD peptide complexes; type: cell-based; conditions: for SA-HRP uptake, Cyt.: COLON 26, cytoplasmic; for SA-HRP uptake, Nuc.: COLON 26, nuclear
Method: as §1

OVCAR-4 = test: Uptake of SA-HRP::MBD peptide complexes; type: cell-based, human; conditions: for SA-HRP uptake, Cyt.: OVCAR-4, cytoplasmic; for SA-HRP uptake, Nuc.: OVCAR-4, nuclear
Method: as §1

NCI-H460 = test: Uptake of SA-HRP::MBD peptide complexes; type: cell-based, human; conditions: for SA-HRP uptake, Cyt.: NCI-H460, cytoplasmic; for SA-HRP uptake, Nuc.: NCI-H460, nuclear
Method: as §1

CHA-59 = test: Uptake of SA-HRP::MBD peptide complexes; type: cell-based, human; conditions: for SA-HRP uptake, Cyt.: CHA-59, cytoplasmic; for SA-HRP uptake, Nuc.: CHA-59, nuclear
Method: as §1

HCT-15 = test: Uptake of SA-HRP::MBD peptide complexes; type: cell-based, human; conditions: for SA-HRP uptake, Cyt.: HCT-15, cytoplasmic; for SA-HRP uptake, Nuc.: HCT-15, nuclear
Method: as §1

DU-145 = test: Uptake of SA-HRP::MBD peptide complexes; type: cell-based, human; conditions: for SA-HRP uptake, Cyt.: DU-145, cytoplasmic; for SA-HRP uptake, Nuc.: DU-145, nuclear
Method: as §1

MCF 7 = test: Uptake of SA-HRP::MBD peptide complexes; type: cell-based, human; conditions: for SA-HRP uptake, Cyt.: MCF 7, cytoplasmic; for SA-HRP uptake, Nuc.: MCF 7, nuclear
Method: as §1

HS 913T = test: Uptake of SA-HRP::MBD peptide complexes; type: cell-based, human; conditions: for SA-HRP uptake, Cyt.: cytoplasmic; for SA-HRP uptake, Nuc.: nuclear
Method: as §1

MOLT4 = test: Uptake of SA-HRP::MBD peptide complexes; type: cell-based, human; conditions: for SA-HRP uptake, Cyt.: MOLT4, cytoplasmic; for SA-HRP uptake, Nuc.: MOLT4, nuclear
Method: as §1

RPMI 8226 = test: Uptake of SA-HRP::MBD peptide complexes; type: cell-based, human; conditions: for SA-HRP uptake, Cyt.: RPMI 8226, cytoplasmic; for SA-HRP uptake, Nuc.: RPMI 8226, nuclear
Method: as §1

NCI-H226 = test: Uptake of SA-HRP::MBD peptide complexes; type: cell-based, human; conditions: for SA-HRP uptake, Cyt.: NCI-H226, cytoplasmic; for SA-HRP uptake, Nuc.: NCI-H226, nuclear
Method: as §1

HS-578T = test: Uptake of SA-HRP::MBD peptide complexes; type: cell-based, human; conditions: for SA-HRP uptake, Cyt.: cytoplasmic; for SA-HRP uptake, Nuc.: nuclear
Method: as §1

NHI-H322M = test: Uptake of SA-HRP::MBD peptide complexes; type: cell-based, human; conditions: for SA-HRP uptake, Cyt.: cytoplasmic; for SA-HRP uptake, Nuc.: nuclear
Method: as §1

SHP-77 = test: Uptake of SA-HRP::MBD peptide complexes; type: cell-based, human; conditions: for SA-HRP uptake, Cyt.: SHP-77, cytoplasmic; for SA-HRP uptake, Nuc.: SHP-77, nuclear
Method: as §1

EKVX = test: Uptake of SA-HRP::MBD peptide complexes; type: cell-based, human; conditions: for SA-HRP uptake, Cyt.: cytoplasmic; for SA-HRP uptake, Nuc.: nuclear
Method: as §1

CCRF-CEM = test: Uptake of SA-HRP::MBD peptide complexes; type: cell-based, human; conditions: for SA-HRP uptake, Cyt.: cytoplasmic; for SA-HRP uptake, Nuc.: nuclear
Method: as §1

UO-31 = test: Uptake of SA-HRP::MBD peptide complexes; type: cell-based, human; conditions: for SA-HRP uptake, Cyt.: UO-31, cytoplasmic; for SA-HRP uptake, Nuc.: UO-31, nuclear
Method: as §1

54 tumor cell lines = test: Uptake of SA-HRP::MBD peptide complexes, median of the survey; type: cell-based; conditions: median over tumor cell lines; for SA-HRP uptake, Cyt. (ng), Median: cytoplasmic; for SA-HRP uptake, Nuc. (ng), Median: nuclear
Method: as §1

KKGFYKKKKQCRPSKGRKRGFCWNGRK [MBD9]
SA-HRP uptake, Cyt. (K562): 2.6 ng | SA-HRP uptake, Nuc. (K562): 1.3 ng | SA-HRP uptake, Cyt. 435: 8.6 ng | SA-HRP uptake, Nuc. 435: 2.7 ng | SA-HRP uptake, Cyt. (PAN 02): 25.8 ng | SA-HRP uptake, Nuc. (PAN 02): 7.0 ng | SA-HRP uptake, Cyt. (HEK 293): 20.2 ng | SA-HRP uptake, Nuc. (HEK 293): 20.1 ng | SA-HRP uptake, Cyt. (SR): 24.4 ng | SA-HRP uptake, Nuc. (SR): 0.0 ng | SA-HRP uptake, Cyt. (CCRF-SB): 2.6 ng | SA-HRP uptake, Nuc. (CCRF-SB): 0.6 ng | SA-HRP uptake, Cyt. (COLON 26): 11.3 ng | SA-HRP uptake, Nuc. (COLON 26): 2.3 ng | SA-HRP uptake, Cyt. (OVCAR-4): 9.9 ng | SA-HRP uptake, Nuc. (OVCAR-4): 2.7 ng | SA-HRP uptake, Cyt. (NCI-H460): 30.3 ng | SA-HRP uptake, Nuc. (NCI-H460): 5.6 ng | SA-HRP uptake, Cyt. (CHA-59): 24.7 ng | SA-HRP uptake, Nuc. (CHA-59): 9.7 ng | SA-HRP uptake, Cyt. (HCT-15): 4.0 ng | SA-HRP uptake, Nuc. (HCT-15): 0.8 ng | SA-HRP uptake, Cyt. (DU-145): 3.1 ng | SA-HRP uptake, Nuc. (DU-145): <0.04 ng | SA-HRP uptake, Cyt. (MCF 7): 26.7 ng | SA-HRP uptake, Nuc. (MCF 7): 19.8 ng | SA-HRP uptake, Cyt. (HS 913T): 3.4 ng | SA-HRP uptake, Nuc. (HS 913T): 1.1 ng | SA-HRP uptake, Cyt. (MOLT4): 12.7 ng | SA-HRP uptake, Nuc. (MOLT4): 0.0 ng | SA-HRP uptake, Cyt. (RPMI 8226): 6.5 ng | SA-HRP uptake, Nuc. (RPMI 8226): 0.0 ng | SA-HRP uptake, Cyt. (NCI-H226): 2.6 ng | SA-HRP uptake, Nuc. (NCI-H226): 1.8 ng | SA-HRP uptake, Cyt. (HS-578T): 6.8 ng | SA-HRP uptake, Nuc. (HS-578T): 2.3 ng | SA-HRP uptake, Cyt. (NHI-H322M): 5.2 ng | SA-HRP uptake, Nuc. (NHI-H322M): 5.0 ng | SA-HRP uptake, Cyt. (SHP-77): 12.8 ng | SA-HRP uptake, Nuc. (SHP-77): 5.9 ng | SA-HRP uptake, Cyt. (EKVX): 7.2 ng | SA-HRP uptake, Nuc. (EKVX): 4.2 ng | SA-HRP uptake, Cyt. (CCRF-CEM): 46.2 ng | SA-HRP uptake, Nuc. (CCRF-CEM): 1.8 ng | SA-HRP uptake, Cyt. (UO-31): 4.6 ng | SA-HRP uptake, Nuc. (UO-31): 1.0 ng | SA-HRP uptake, Cyt. (ng), Median (54 tumor cell lines): 7.4 ng | SA-HRP uptake, Nuc. (ng), Median (54 tumor cell lines): 1.8 ng

KKGFYKKKQCRPSKGRKRGFCWAVDKYG (cysteine pairing not given here; also: biotinylated (position not given here), complexed with SA-HRP) [MBD21]
SA-HRP uptake, Cyt. (K562): 2.8 ng | SA-HRP uptake, Nuc. (K562): 1.1 ng | SA-HRP uptake, Cyt. 435: 6.1 ng | SA-HRP uptake, Nuc. 435: 1.3 ng | SA-HRP uptake, Cyt. (PAN 02): 9.3 ng | SA-HRP uptake, Nuc. (PAN 02): 2.2 ng | SA-HRP uptake, Cyt. (HEK 293): 13.6 ng | SA-HRP uptake, Nuc. (HEK 293): 4.5 ng | SA-HRP uptake, Cyt. (SR): 20.9 ng | SA-HRP uptake, Nuc. (SR): 0.0 ng | SA-HRP uptake, Cyt. (CCRF-SB): 1.7 ng | SA-HRP uptake, Nuc. (CCRF-SB): 0.1 ng | SA-HRP uptake, Cyt. (COLON 26): 8.9 ng | SA-HRP uptake, Nuc. (COLON 26): 2.2 ng | SA-HRP uptake, Cyt. (OVCAR-4): 6.1 ng | SA-HRP uptake, Nuc. (OVCAR-4): 1.3 ng | SA-HRP uptake, Cyt. (NCI-H460): 11.6 ng | SA-HRP uptake, Nuc. (NCI-H460): 5.8 ng | SA-HRP uptake, Cyt. (CHA-59): 8.2 ng | SA-HRP uptake, Nuc. (CHA-59): 2.1 ng | SA-HRP uptake, Cyt. (HCT-15): 2.7 ng | SA-HRP uptake, Nuc. (HCT-15): 0.7 ng | SA-HRP uptake, Cyt. (DU-145): 25.7 ng | SA-HRP uptake, Nuc. (DU-145): 3.3 ng | SA-HRP uptake, Cyt. (MCF 7): 11.1 ng | SA-HRP uptake, Nuc. (MCF 7): 5.8 ng | SA-HRP uptake, Cyt. (HS 913T): 2.1 ng | SA-HRP uptake, Nuc. (HS 913T): 1.8 ng | SA-HRP uptake, Cyt. (MOLT4): 7.3 ng | SA-HRP uptake, Nuc. (MOLT4): 0.0 ng | SA-HRP uptake, Cyt. (RPMI 8226): 3.6 ng | SA-HRP uptake, Nuc. (RPMI 8226): 0.0 ng | SA-HRP uptake, Cyt. (NCI-H226): 0.7 ng | SA-HRP uptake, Nuc. (NCI-H226): 0.9 ng | SA-HRP uptake, Cyt. (HS-578T): 2.8 ng | SA-HRP uptake, Nuc. (HS-578T): 2.3 ng | SA-HRP uptake, Cyt. (NHI-H322M): 6.0 ng | SA-HRP uptake, Nuc. (NHI-H322M): 8.3 ng | SA-HRP uptake, Cyt. (SHP-77): 6.6 ng | SA-HRP uptake, Nuc. (SHP-77): 2.7 ng | SA-HRP uptake, Cyt. (EKVX): 7.7 ng | SA-HRP uptake, Nuc. (EKVX): 7.3 ng | SA-HRP uptake, Cyt. (CCRF-CEM): 41.3 ng | SA-HRP uptake, Nuc. (CCRF-CEM): 2.0 ng | SA-HRP uptake, Cyt. (UO-31): 1.3 ng | SA-HRP uptake, Nuc. (UO-31): 3.3 ng | SA-HRP uptake, Cyt. (ng), Median (54 tumor cell lines): 2.8 ng | SA-HRP uptake, Nuc. (ng), Median (54 tumor cell lines): 1.0 ng
